Data reported in patent US8759368B2, “Benzoic acid, benzoic acid derivatives and heteroaryl carboxylic acid conjugates of hydrocodone, prodrugs, methods of making and use thereof” (KemPharma, Inc., priority 2009, dated 2014).

Legend:
[1] = Chemical stability: hydrolysis to hydrocodone in 1 N HCl for 1 hour; details: for %-release in 1N HCl, ambient: ambient temperature (~20° C.); for %-release in 1N HCl, 100° C.: oil bath at 100° C.
[2] = Water solubility / hydrophobicity of conjugates (feasibility of intranasal or intravenous dosing); details: for hydrophobic character (in words): do not dissolve in a practical amount of water for intravenous dosing at oral equivalent doses; for water solubility (in words): mixed with water, basis for intranasal or intravenous dosing in rats
[3] = Chemical stability: hydrolysis in 5% NaHCO3 for one hour; format: physicochemical; details: 5% NaHCO3, one hour; for %-release in 5% NaHCO3, ambient: ambient temperature (~20° C.); for %-release in 5% NaHCO3, 100° C.: oil bath at 100° C.
[4] = Intranasal PK in rats, plasma hydrocodone and hydromorphone by LC-MS/MS; details: equivalent to 2 mg/kg hydrocodone freebase
[5] = Oral PK in rats, plasma hydrocodone, hydromorphone and intact conjugate by LC-MS/MS
[6] = Oral PK in dogs, plasma intact Bz-HC, hydrocodone and hydromorphone by LC-MS/MS; details: equivalent to 2 mg/kg freebase hydrocodone, FIG. 17
[7] = Chemical stability: hydrolysis of conjugate in water for one hour; format: physicochemical; details: for water, ambient (amount of conjugate hydrolyzed): ambient temperature (about 20° C.); for water, 100° C. (amount of conjugate hydrolyzed): oil bath at 100° C.
Procedure: Exemplary conjugates of hydrocodone of the present technology and control test conjugates not of the present technology were tested for chemical stability under conditions similar to what a potential drug abuser may use to “extract” the active portion of the molecule, for example dissolved in water, hydrochloric acid or sodium bicarbonate either at ambient temperature or 100° C.

[8] = equivalent to 2 mg/kg freebase hydrocodone, FIG. 14
[9] = equivalent to 2 mg/kg hydrocodone freebase, FIG. 11
[10] = equivalent to 2 mg/kg hydrocodone freebase, FIG. 12

Row | Molecule | %-release in 1N HCl, ambient [1] [%] | %-release in 1N HCl, 100° C. [1] [%] | hydrophobic character (in words) [2] | water solubility (in words) [2] | %-release in 5% NaHCO3, ambient [3] [%] | %-release in 5% NaHCO3, 100° C. [3] [%] | also measured
1 | COc1ccc(C(=O)OC2=CC[C@H]3[C@H]4Cc5ccc(OC)c6c5[C@@]3(CCN4C)C2O6)cc1O (stereo partly shown) [3-OH-4-MeO-Bz-HC] | 0 | 35 | hydrophobic | poorly water soluble | 0 | 36 | –
2 | COc1ccc2c3c1OC1C(OC(=O)CCCCC(=O)O)=CC[C@H]4[C@@H](C2)N(C)CC[C@]314 (stereo partly shown) [Adipate-HC, reference compound] | 13 | 100 | – | water soluble | 3 | 100 | AUC for hydromorphone released from Adipate-HC, higher than for Bz-HC (sentence on hydrocodone plasma concentrations) ([4]; FIG. 7): approximately 280%; Cmax for hydromorphone released from Adipate-HC, higher than for Bz-HC (sentence on hydrocodone plasma concentrations) ([4]; FIG. 7): ~60%; AUC for hydromorphone released from Adipate-HC, higher than for Bz-HC ([4]; FIG. 8): approximately 750%; Cmax for hydromorphone released from Adipate-HC, higher than for Bz-HC ([4]; FIG. 8): ~660%
3 | COc1ccc2c3c1OC1C(OC(=O)c4ccccc4)=CCC4C(C2)N(C)CCC314 (stereo not shown) [Bz-HC, benzoate-hydrocodone] | – | – | hydrophobic | poor water solubility | – | – | Cmax values of hydrocodone and hydromorphone versus dose ([5]; 0.25 to 4.00 mg/kg, particularly for hydromorphone): more variable; maximum plasma concentrations of hydromorphone versus dose ([5]; doses above 2.00 mg/kg of Bz-HC): did not significantly change; exposures (AUC) to hydrocodone and hydromorphone versus dose ([5]; doses of Bz-HC between 0.25 and 4.00 mg/kg, FIGS. 19 and 20): fairly linear; oral PK curve for released hydrocodone compared with YYFFI-HC ([5]; equivalent to 2 mg/kg freebase hydrocodone, FIG. 5): somewhat similar; AUC for intact Bz-HC as % of the AUC value for hydrocodone [5, 8]: approximately 10%; AUC for intact Bz-HC as % of the AUC value for hydromorphone [5, 8]: ~3%; AUC value for intact Bz-HC as % of the AUC value for hydrocodone [6]: approximately 10%; hydrocodone plasma concentrations compared with Adipate-HC ([4]; FIG. 7): significantly lower; plasma concentration of hydromorphone compared with Adipate-HC ([4]; FIG. 8): very low
4 | COc1ccc2c3c1OC1C(OC(=O)c4ccccc4N)=CCC4C(C2)N(C)CCC314.Cl.Cl (stereo not shown) [Compound 2-ABz-HC, 2-Aminobenzoic Acid Ester of Hydrocodone Dihydrochloride Salt] | 0 | 16 | – | – | – | – | hydrocodone AUC, lower than for Hydrocodone.BT [5, 9]: approximately 35%; hydrocodone Cmax, lower than for Hydrocodone.BT [5, 9]: ~60%; hydromorphone AUC, lower than for Hydrocodone.BT [5, 10]: approximately 25%; hydromorphone Cmax, lower than for Hydrocodone.BT [5, 10]: ~50%; water, ambient (amount of conjugate hydrolyzed) [7]: 0%; water, 100° C. (amount of conjugate hydrolyzed) [7]: 0%
5 | COc1ccc2c3c1O[C@H]1C(OC(=O)c4ccccc4O)=CC[C@H]4[C@@H](C2)N(C)CC[C@]314.Cl [Compound 2-OH-Bz-HC, Salicylic Acid Ester of Hydrocodone Hydrochloride Salt] | – | – | hydrophobic | – | – | – | –
6 | COc1ccc2c3c1OC1C(OC(=O)c4cccc(O)c4)=CCC4C(C2)N(C)CCC314 (stereo not shown) [Compound 3-OH-Bz-HC] | – | – | hydrophobic | poorly water soluble | – | – | –
7 | COc1ccc(C(=O)OC2=CC[C@H]3[C@H]4Cc5ccc(OC)c6c5[C@@]3(CCN4C)C2O6)cc1 (stereo partly shown) [Compound 4-MeO-Bz-HC] | – | – | hydrophobic | – | – | – | water, ambient (amount of conjugate hydrolyzed) [7]: 0%; water, 100° C. (amount of conjugate hydrolyzed) [7]: 0%
8 | COc1ccc2c3c1O[C@H]1C(OC(=O)c4ccc(O)cc4)=CC[C@H]4[C@@H](C2)N(C)CC[C@]314 [Compound 4-OH-Bz-HC] | 0 | 30 | hydrophobic | – | 1 | 23 | water, ambient (amount of conjugate hydrolyzed) [7]: 0%; water, 100° C. (amount of conjugate hydrolyzed) [7]: 0%
9 | COc1ccc2c3c1OC1C(OC(=O)COCC(=O)O)=CC[C@H]4[C@@H](C2)N(C)CC[C@]314 (stereo partly shown) [Diglycolate-HC, reference compound] | – | – | – | water soluble | – | – | –
10 | COc1ccc2c3c1OC1C(OC(=O)c4cccnc4)=CCC4C(C2)N(C)CCC314 (stereo not shown) [Nicotinate-HC, nicotinate-hydrocodone] | – | – | hydrophobic | – | – | – | hydrocodone and hydromorphone plasma concentrations compared with unconjugated Hydrocodone.BT ([5]; equivalent to 2 mg/kg hydrocodone freebase, FIGS. 9 and 10): below the respective concentrations; AUC values of hydrocodone and hydromorphone compared with Hydrocodone.BT ([5]; same dose based on hydrocodone freebase): within the range of bioequivalence
11 | COc1ccc2c3c1OC1C(OC(=O)c4ccc5c(c4)OCO5)=CC[C@H]4[C@@H](C2)N(C)CC[C@]314 (stereo partly shown) [Piperonylate-HC] | – | – | hydrophobic | poorly water soluble | – | – | –
12 | Tyr-Tyr-Phe-Phe-Ile-Hydrocodone [YYFFI-HC, reference compound] | – | – | – | – | 0 | 70 | –
